33 compounds from ChEMBL document CHEMBL1130329, “Coumarin-based inhibitors of HIV integrase” (J Med Chem, 1997) can be followed below.

Where “and” joins values, the source holds several entries; their conditions need not be identical. Equal values may be shown once. Where only a bound is given, the exact number is not on record here.

In general, IC50 refers to the concentration that inhibits the measured activity by half. Higher therefore signals weaker potency in that assay.

A short description of data set [1]: Delta Logarithm of Partition Coefficient value was determined. As to conditions: octanol/water.
In data set [2] the target is T1, Human immunodeficiency virus type 1 integrase (Human immunodeficiency virus 1, UniProt Q7ZJM1). The experiment in a line: (§1) Inhibitory activity against 3'-processing of DNA by HIV-1 integrase. It is filed as functional.
Data set [3] deals with T1, Human immunodeficiency virus type 1 integrase. In words: Integration of DNA by HIV -1 integrase.
Data set [4] shares this target. Described as §1.
Data set [5] has the same target. In words: Inhibitory activity against 3'-processing of DNA byHIV-1 integrase. In kind it is functional.

T1 sequence (Q7ZJM1 whole entry): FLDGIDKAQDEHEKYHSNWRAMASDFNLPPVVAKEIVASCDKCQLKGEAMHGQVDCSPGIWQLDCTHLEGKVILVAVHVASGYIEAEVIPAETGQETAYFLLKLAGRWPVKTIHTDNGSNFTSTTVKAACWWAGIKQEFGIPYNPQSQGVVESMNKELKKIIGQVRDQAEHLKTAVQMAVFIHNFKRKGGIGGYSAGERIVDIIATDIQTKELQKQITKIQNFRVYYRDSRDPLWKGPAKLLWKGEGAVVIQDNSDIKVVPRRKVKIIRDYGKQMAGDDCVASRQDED

With `O=c1c(C(c2ccc(O)cc2)c2c(O)oc3ccccc3c2=O)c(O)oc2ccccc12`, the “delta Log P” value in data set [1] is recorded as 1.1. For the same compound, the IC50 was 141 µM and 128 µM and 130 µM in data set [2]; 75 µM and 74 µM in data set [3].
As to `O=c1c(C(c2ccc(/C=C/c3ccccc3)cc2)c2c(O)oc3ccccc3c2=O)c(O)oc2ccccc12`, the “delta Log P” value in data set [1] is 4.14. Moreover, the IC50 is 5.5 µM and 9.2 µM and 7 µM in data set [2]; 3.7 µM and 9.5 µM in data set [3].
Consider `O=c1c(C(c2ccc(C(c3c(O)oc4ccccc4c3=O)c3c(O)oc4ccccc4c3=O)cc2)c2c(O)oc3ccccc3c2=O)c(O)oc2ccccc12`, for which, in data set [1], the “delta Log P” value turned out to be 2.84. The compound further had a concentration for half-maximal inhibition (IC50) in data set [2] of 2 µM.
Turning to `O=c1c(C(c2ccc3ccccc3c2)c2c(O)oc3cc(O)ccc3c2=O)c(O)oc2cc(O)ccc12`, the IC50 in data set [2] was 4.2 µM; in data set [3], 3.55 µM.
Take `O=c1c(C(c2ccco2)c2c(O)oc3ccccc3c2=O)c(O)oc2ccccc12`: the “delta Log P” value in data set [1] was 0.45. Moreover, the IC50 in data set [2] was 75 µM and 34 µM and 54 µM; in data set [3], 133 µM and 122 µM.
With `O=c1c(C(c2ccccc2)c2c(O)oc3cc(O)ccc3c2=O)c(O)oc2cc(O)ccc12`, the IC50 in data set [2] came to 17.2 µM; in data set [3], 22.2 µM.
As to `O=c1c(C(c2ccc3c(c2)Cc2ccccc2-3)c2c(O)oc3ccccc3c2=O)c(O)oc2ccccc12`, the “delta Log P” value in data set [1] is on record as 3.4. Further, the half-inhibitory concentration (IC50) in data set [2] is 10 µM (2×) and 11 µM; in data set [3], 9.5 µM and 7.8 µM.
Take `O=c1c(C(c2cccnc2)c2c(O)oc3cc(O)ccc3c2=O)c(O)oc2cc(O)ccc12`: the 50% inhibitory concentration (IC50) in data set [4] was 89 µM; in data set [2], 62 µM and 116 µM; in data set [3], 25 µM and 97 µM.
For the compound `CN(C)c1ccc(C(c2c(O)oc3ccccc3c2=O)c2c(O)oc3ccccc3c2=O)cc1`, the “delta Log P” value in data set [1] is recorded as 1.88. Moreover, the IC50 in data set [2] is 100 µM and 190 µM; in data set [5], 88 µM; in data set [3] it was 50 µM and 88 µM.
`O=c1c(Cc2c(O)oc3cc(O)ccc3c2=O)c(O)oc2cc(O)ccc12`: the IC50 in data set [2] came out at 46.3 µM; in data set [3] it was 44.9 µM.
For the compound `O=c1c(C(c2ccccc2)c2c(O)oc3ccccc3c2=O)c(O)oc2ccccc12`, the “delta Log P” value in data set [1] is 1.6. For the same compound, the 50% inhibitory concentration (IC50) in data set [2] is 43.4 µM and 43 µM; in data set [3], 38.8 µM.
In the case of `O=c1c(C(c2ccc(/C=C/c3ccccc3)cc2)c2c(O)oc3cc(O)ccc3c2=O)c(O)oc2cc(O)ccc12`, in data set [3], half-maximal inhibition (IC50) required 1.8 µM.
With `O=c1c(C(c2cccc(C(c3c(O)oc4ccccc4c3=O)c3c(O)oc4ccccc4c3=O)c2)c2c(O)oc3ccccc3c2=O)c(O)oc2ccccc12`, the IC50 was 3 µM and 2.9 µM in data set [2]; 1.2 µM and 2 µM in data set [3].
As to `O=c1c(C(c2ccc3ccccc3c2)c2c(O)oc3ccccc3c2=O)c(O)oc2ccccc12`, the “delta Log P” value in data set [1] is reported as 2.6. In addition, the 50% inhibitory concentration (IC50) in data set [2] is 19 µM and 20 µM (2×); in data set [3], 16 µM and 9 µM.
With `O=c1c(C(c2ccc(C(c3c(O)oc4cc(O)ccc4c3=O)c3c(O)oc4cc(O)ccc4c3=O)cc2)c2c(O)oc3cc(O)ccc3c2=O)c(O)oc2cc(O)ccc12`, the IC50 stood at 0.37 µM in data set [2] and 0.33 µM in data set [3].
`O=c1cc(O)c2ccc(O)cc2o1`: the IC50 in data set [2] is 300 µM; in data set [3], 325 µM.
In the case of `O=c1oc2ccccc2c(O)c1C1c2ccccc2Oc2c1c(=O)oc1ccccc21` (centres undefined), the IC50 in data set [2] is 121 µM and 127 µM; in data set [3] it was 122 µM and 163 µM.
`COc1cc(C(c2c(O)c3ccccc3oc2=O)c2c(O)c3ccccc3oc2=O)ccc1O`: the “delta Log P” value in data set [1] amounted to 1.05. Besides, the IC50 in data set [2] was 198 µM and 177 µM and 190 µM; in data set [3], 76 µM and 108 µM.
As to `O=c1c(Cc2ccccc2Cc2c(O)oc3ccccc3c2=O)c(O)oc2ccccc12`, the IC50 was 46 µM and 45 µM in data set [2]; 20.5 µM and 33.2 µM in data set [3].
For the compound `O=c1c(C(c2ccc(-c3ccccc3)cc2)c2c(O)oc3ccccc3c2=O)c(O)oc2ccccc12`, the “delta Log P” value in data set [1] is given as 3.33. Also, the IC50 in data set [2] is 14 µM and 16 µM and 15 µM; in data set [3], 13 µM and 28 µM.
With `O=c1c(C(c2cnc3ccccc3c2)c2c(O)oc3ccccc3c2=O)c(O)oc2ccccc12`, the “delta Log P” value in data set [1] worked out at 1.6. The IC50 was 40 µM and 29 µM and 35 µM in data set [2]; 23 µM and 14 µM in data set [3].
As for `O=c1c(C(c2ccc(OCc3ccccc3)cc2)c2c(O)oc3ccccc3c2=O)c(O)oc2ccccc12`, the “delta Log P” value in data set [1] is given as 3.06. Besides, the IC50 in data set [2] is 19 µM and 8.5 µM and 20 µM; in data set [3], 14 µM and 24 µM.
Consider `O=c1c(C(c2ccc([N+](=O)[O-])cc2)c2c(O)oc3ccccc3c2=O)c(O)oc2ccccc12`, for which the “delta Log P” value in data set [1] turned out to be 1.37. Moreover, the IC50 in data set [2] is 58 µM and 54 µM; in data set [5], 50 µM; in data set [3], 12 µM and 24 µM.
In the case of `O=c1c(C(c2cccs2)c2c(O)oc3ccccc3c2=O)c(O)oc2ccccc12`, the “delta Log P” value in data set [1] is recorded as 0.86. Moreover, the half-maximal inhibitory concentration (IC50) in data set [2] is 100 µM and 105 µM; in data set [5], 110 µM; in data set [3] it was 148 µM and 149 µM.
On to `O=C(O)c1ccc(C(c2c(O)oc3ccccc3c2=O)c2c(O)oc3ccccc3c2=O)cc1`, for which the concentration for half-maximal inhibition (IC50) was 66 µM and 48 µM in data set [2]; 54 µM and 49 µM in data set [3].
For the compound `O=c1oc2ccccc2c(O)c1C1c2c(c3ccccc3oc2=O)Oc2c1c(=O)oc1ccccc21`, the figures for the IC50 in data set [2] and in data set [3] were 35.7 µM and 22.5 µM, respectively.
For the compound `O=c1c(Cc2ccc(Cc3c(O)oc4ccccc4c3=O)cc2)c(O)oc2ccccc12`, the IC50 in data set [2] amounted to 80.6 µM; in data set [3], 69.2 µM.
For `O=c1c(Cc2cccc(Cc3c(O)oc4ccccc4c3=O)c2)c(O)oc2ccccc12`, the IC50 in data set [2] is 34 µM and 40 µM; in data set [3] it was 11.1 µM and 27.5 µM.
As to `O=c1c(C(c2ccccn2)c2c(O)oc3cc(O)ccc3c2=O)c(O)oc2cc(O)ccc12`, the IC50 in data set [4] was 81 µM; in data set [2], 94 µM and 84 µM; in data set [3], 49 µM and 70 µM.
On to `O=c1c(C(c2cc(OCc3ccccc3)cc(OCc3ccccc3)c2)c2c(O)oc3ccccc3c2=O)c(O)oc2ccccc12`, for which the “delta Log P” value in data set [1] is 5.15. For the same compound, the IC50 is 8 µM and 11 µM and 10 µM in data set [2]; 12 µM and 3.7 µM in data set [3].
“3,3'-(Ferrocenomethylene)bis[4-hydroxycoumarin]”: the IC50 in data set [2] was 11 µM and 3.6 µM; in data set [3], 7 µM and 5 µM.
Consider `O=c1cc(O)c2ccccc2o1` [4-HYDROXYCOUMARINS], for which the IC50 in data set [2] and in data set [3] was over 100 µM each time.
For `O=c1oc2ccccc2c(O)c1Cc1c(O)c2ccccc2oc1=O` [DICUMAROL], the IC50 was over 300 µM in data set [2] and over 100 µM in data set [3].
